Data: patent US11046696B2, “Fused pyrimidine compound or salt thereof” (TAIHO PHARMACEUTICAL CO., LTD., priority 2016, dated 2021)
Like-named read-outs stand apart in the source and are kept apart here.

Columns and labels:
[1] = system: human thyroid cancer cell line TT with RET activating mutation; assay: In vivo antitumor effect, mice subcutaneously implanted with TT cells; parameters: species or system BALB/cA Jcl-nu/nu male mice; conditions: 100 mg/kg/day group, grouping day (day 0)
Method: Human thyroid cancer cell lines (TT) were subcutaneously implanted into the right frank of 6- to 7-week-old BALB/cA Jcl-nu/nu male mice. After about 2 to 3 weeks from the cell implantation, the length (mm) and the width (mm) of tumors found in mouse bodies were measured. […] The day on which the mice were divided into groups was determined to be the “grouping day” (day 0 or 1).
A control group was administered a solvent (0.5% HPMC/0.1N HCl).
To determine the index of the antitumor effect, TV of each drug-administrated group was measured on day 15, and the tumor volume on day 15 relative to the tumor volume on the grouping day (day 0 or 1) (relative tumor volume: RTV) and T/C (%) were calculated from the following equations, and the antitumor effect was evaluated. […] TV (mm^3)=(length×width^2)/2 RTV=(TV on day 15)/(TV on day 0 or day 1) T/C(%)=(the mean RTV of a test compound treatment group)/(the mean RTV of the control group)×100

[2] = mouse, microsomes, 0.5 h, 1 μM
[3] = Evaluation of stability in liver microsome; conditions: mouse liver microsome, 1 μM, 37° C. for 30 minutes

| SMILES | Remaining (%) [3] | further results |
| --- | --- | --- |
| COCc1ccc(NC(=O)c2c(C#CCN3CCOCC3)n(C3(C)CC3)c3ncnc(N)c23)cc1 [Example 85, 4-amino-N-[4-(methoxymethyl)phenyl]-7-(1-methylcyclopropyl)-6-(3-morpholinoprop-1-yn-1-yl)-7H-pyrrolo[2,3-d]pyrimidine-5-carboxamide] | – | TV (mm^3) Day 0 Mean ± SE [1]: 169.45 ± 16.73 mm^3 |
| C/C=C/c1ccc(NC(=O)c2c(OCC)n(C3(C)CC3)c3ncnc(N)c23)cc1 [Example 117, (E)-4-amino-6-ethoxy-7-(1-methylcyclopropyl)-N-(4-(prop-1-en-1-yl)phenyl)-7H-pyrrolo[2,3-d]pyrimidine-5-carboxamide] | – | Remaining (%) [2]: 53% |
| COCc1ccc(NC(=O)c2c(C#CCN3CCN(C)CC3)n(C3(C)CC3)c3ncnc(N)c23)cc1 [Example 132, 4-amino-N-(4-(methoxymethyl)phenyl)-7-(1-methylcyclopropyl)-6-(3-(4-methylpiperazin-1-yl)prop-1-yn-1-yl)-7H-pyrrolo[2,3-d]pyrimidine-5-carboxamide] | 77% | – |
| COCc1ccc(NC(=O)c2c(C#Cc3cccs3)n(C3(C)CC3)c3ncnc(N)c23)cc1 [Example 119, 4-amino-N-(4-(methoxymethyl)phenyl)-7-(1-methylcyclopropyl)-6-(thiophen-2-ylethynyl)-7H-pyrrolo[2,3-d]pyrimidine-5-carboxamide] | 70% | – |
